Assay results published in PubChem BioAssay AID2060508 (Molecular Pharmacology Branch, DTP, NCI, 2025).

Test system: 454973-116-R2-J3-PDC spheroids, viability, % test/control
Assay: Anticancer human tumor 454973-116-R2-J3-PDC patient-derived pancreatic carcinoma cell line growth inhibition [GQUAD]
Conditions: second compound 0.1 µM; first compound 1 µM; hits give low values; spheroids with HUVEC and MSC
Description: DNA G-quadruplex Stabilizer Agents in Combinations in Complex Spheroids
A high-throughput screen of multi-cell type tumor spheroids was designed to identify active combinations of DNA G-quadruplex stabilizer agents and targeted small molecules. Complex spheroids include a stromal component modeled by human endothelial cells (HUVEC) and fibroblasts modeled by human mesenchymal stem cells (MSCs). The concentration ranges selected for each drug and investigational agent were based upon clinically achievable concentrations if the clinical Cmax of the agent was known.
Compounds. The drugs and investigational agents: pidnarulex (CX-5461; NSC782164), APTO-253 (NSC789042), BRACO-19 (NSC847499), peposertib (NSC802822), ceralasertib (NSC780249), elimusertib (NSC800525), camonsertib (NSC841442), AZD-1390 (NSC803789), olaparib (NSC753686), talazoparib (NSC767125), ART-558 (NSC835418), sotorasib (NSC818433), MRTX-1133 (NSC836407), SN-38 (NSC673596), topotecan (NSC609699), etoposide (NSC141540), doxorubicin (NSC123127), gemcitabine (NSC613327), 5-fluorouracil (NSC19893), paclitaxel (NSC125973), vemurafenib (NSC761431), panobinostat (NSC761190), R-306465 (JNJ-16241199; NSC773264), adavosertib (NSC754352), TP-3654 (NSC805149), carboplatin (NSC241240), KSQ-4279 (NSC840948), and staurosporine (NSC755774) were obtained from the National Cancer Institute (NCI) Developmental Therapeutics Program Chemical Repository (34). The FDA-approved anticancer drug set is available from the NCI Developmental Therapeutics Program. […] The stock solutions were prepared in dimethyl sulfoxide (DMSO, Sigma-Aldrich, St. Louis, MO, cat. D2650) at 800-fold the tested concentration and stored at -70 degrees C prior to their use. All drugs and investigational agents were tested over a range starting from a high concentration at or near the clinical Cmax and decreasing in half-log increments. If the clinical Cmax for an agent had not been determined, the highest concentration tested was 10 microM.
2.3 Cell Culture. All cells were maintained in an incubator at 37 degrees C and 5% CO2 with 95% humidity. The PDC lines were cultured according to standard operating procedures established by the NCI PDMR. All PDCs were thawed and cultured in Matrigel-coated flasks prepared with a working solution of 1X Ham's F-12 nutrient mix, without supplementation (Invitrogen, cat. 11765054), 100 U/mL penicillin-streptomycin (Invitrogen, cat. 15140122), and 2.5% Matrigel (Corning Inc., cat. 354248) for the first three passages. The 857933-349-R-J2-PDC line was cultured in 6C/Colon 1B media, which includes advanced DMEM/F-12 (Thermo Fisher Scientific, cat. 12634028), 10 mM HEPES (Thermo Fisher Scientific, cat. 15630080), 1X GlutaMAX supplement (Thermo Fisher Scientific, cat. 35050061), 0.1 mg/mL primocin (InvivoGen, cat. ant-pm-2), 10% defined fetal bovine serum, heat inactivated (HyClone Laboratories Inc., cat. SH30070.03HI), 50% L-WRN conditioned media (ATCC, cat. CRL-3276), 1.25 mM N-Acetyl-L-cysteine (Sigma-Aldrich, cat. A9165), 10 mM nicotinamide (Sigma-Aldrich, cat. N0636), 1X B-27 supplement (Thermo Fisher Scientific, cat. 17504044), 1X N-2 supplement (Thermo Fisher Scientific, cat. 17502048), 10 microM Y-27632 dihydrochloride (Tocris Bioscience, cat. 1254), and 50 ng/mL human EGF recombinant protein (Thermo Fisher Scientific, cat. PHG0311). The 485176-168-R4-J1-PDC line was cultured in Panc media, which includes all 6C/Colon 1B media components plus 100 ng/mL human FGF-10 (Thermo Fisher Scientific, cat. 100-26), 500 nM SB-431542 (Selleckchem, cat. S1067), and gastrin (Tocris, cat. 3006).
[…]
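Also: spheroids exposed to compounds for seven days.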

Compound | viability, T/C [%]
O=c1[nH]cc(F)c(=O)[nH]1 + CN(C)c1ccc(Nc2c3ccc(NC(=O)CCN4CCCC4)cc3nc3cc(NC(=O)CCN4CCCC4)ccc23)cc1 | 83.4

Same assay, conditions: second compound 0.1 µM; first compound 3.16 µM; hits give low values; spheroids with HUVEC and MSC

Compound | viability, T/C [%]
C#Cc1c(F)ccc2cc(O)cc(-c3ncc4c(N5CC6CCC(C5)N6)nc(OCC56CCCN5CC(F)C6)nc4c3F)c12 (stereo unspecified) + CN(C)c1ccc(Nc2c3ccc(NC(=O)CCN4CCCC4)cc3nc3cc(NC(=O)CCN4CCCC4)ccc23)cc1 | 21.2
CC(C)n1c(=O)n(C)c2cnc3cc(F)c(-c4ccc(OCCCN5CCCCC5)nc4)cc3c21 + CN(C)c1ccc(Nc2c3ccc(NC(=O)CCN4CCCC4)cc3nc3cc(NC(=O)CCN4CCCC4)ccc23)cc1 | 68.7
Nc1ccn(C2OC(CO)C(O)C2(F)F)c(=O)n1 (stereo unspecified) + CN(C)c1ccc(Nc2c3ccc(NC(=O)CCN4CCCC4)cc3nc3cc(NC(=O)CCN4CCCC4)ccc23)cc1 | 13.2
O=c1[nH]cc(F)c(=O)[nH]1 + CN(C)c1ccc(Nc2c3ccc(NC(=O)CCN4CCCC4)cc3nc3cc(NC(=O)CCN4CCCC4)ccc23)cc1 | 28.5

Same assay, conditions: second compound 0.1 µM; first compound 10 µM; hits give low values; spheroids with HUVEC and MSC

Compound | viability, T/C [%]
C#Cc1c(F)ccc2cc(O)cc(-c3ncc4c(N5CC6CCC(C5)N6)nc(OCC56CCCN5CC(F)C6)nc4c3F)c12 (stereo unspecified) + CN(C)c1ccc(Nc2c3ccc(NC(=O)CCN4CCCC4)cc3nc3cc(NC(=O)CCN4CCCC4)ccc23)cc1 | 16.9
CC(C)n1c(=O)n(C)c2cnc3cc(F)c(-c4ccc(OCCCN5CCCCC5)nc4)cc3c21 + CN(C)c1ccc(Nc2c3ccc(NC(=O)CCN4CCCC4)cc3nc3cc(NC(=O)CCN4CCCC4)ccc23)cc1 | 76.1
Nc1ccn(C2OC(CO)C(O)C2(F)F)c(=O)n1 (stereo unspecified) + CN(C)c1ccc(Nc2c3ccc(NC(=O)CCN4CCCC4)cc3nc3cc(NC(=O)CCN4CCCC4)ccc23)cc1 | 15.4
O=c1[nH]cc(F)c(=O)[nH]1 + CN(C)c1ccc(Nc2c3ccc(NC(=O)CCN4CCCC4)cc3nc3cc(NC(=O)CCN4CCCC4)ccc23)cc1 | 31.7

Same assay, conditions: second compound 0.316 µM; first compound 0.0316 µM; hits give low values; spheroids with HUVEC and MSC

Compound | viability, T/C [%]
C#Cc1c(F)ccc2cc(O)cc(-c3ncc4c(N5CC6CCC(C5)N6)nc(OCC56CCCN5CC(F)C6)nc4c3F)c12 (stereo unspecified) + CN(C)c1ccc(Nc2c3ccc(NC(=O)CCN4CCCC4)cc3nc3cc(NC(=O)CCN4CCCC4)ccc23)cc1 | 50
CC(C)n1c(=O)n(C)c2cnc3cc(F)c(-c4ccc(OCCCN5CCCCC5)nc4)cc3c21 + CN(C)c1ccc(Nc2c3ccc(NC(=O)CCN4CCCC4)cc3nc3cc(NC(=O)CCN4CCCC4)ccc23)cc1 | 103
Nc1ccn(C2OC(CO)C(O)C2(F)F)c(=O)n1 (stereo unspecified) + CN(C)c1ccc(Nc2c3ccc(NC(=O)CCN4CCCC4)cc3nc3cc(NC(=O)CCN4CCCC4)ccc23)cc1 | 16.9
O=c1[nH]cc(F)c(=O)[nH]1 + CN(C)c1ccc(Nc2c3ccc(NC(=O)CCN4CCCC4)cc3nc3cc(NC(=O)CCN4CCCC4)ccc23)cc1 | 102

Same assay, conditions: second compound 0.316 µM; first compound 0.1 µM; hits give low values; spheroids with HUVEC and MSC

Compound | viability, T/C [%]
C#Cc1c(F)ccc2cc(O)cc(-c3ncc4c(N5CC6CCC(C5)N6)nc(OCC56CCCN5CC(F)C6)nc4c3F)c12 (stereo unspecified) + CN(C)c1ccc(Nc2c3ccc(NC(=O)CCN4CCCC4)cc3nc3cc(NC(=O)CCN4CCCC4)ccc23)cc1 | 35.7
CC(C)n1c(=O)n(C)c2cnc3cc(F)c(-c4ccc(OCCCN5CCCCC5)nc4)cc3c21 + CN(C)c1ccc(Nc2c3ccc(NC(=O)CCN4CCCC4)cc3nc3cc(NC(=O)CCN4CCCC4)ccc23)cc1 | 103
Nc1ccn(C2OC(CO)C(O)C2(F)F)c(=O)n1 (stereo unspecified) + CN(C)c1ccc(Nc2c3ccc(NC(=O)CCN4CCCC4)cc3nc3cc(NC(=O)CCN4CCCC4)ccc23)cc1 | 15.3
O=c1[nH]cc(F)c(=O)[nH]1 + CN(C)c1ccc(Nc2c3ccc(NC(=O)CCN4CCCC4)cc3nc3cc(NC(=O)CCN4CCCC4)ccc23)cc1 | 103

Same assay, conditions: second compound 0.316 µM; first compound 0.316 µM; hits give low values; spheroids with HUVEC and MSC

Compound | viability, T/C [%]
C#Cc1c(F)ccc2cc(O)cc(-c3ncc4c(N5CC6CCC(C5)N6)nc(OCC56CCCN5CC(F)C6)nc4c3F)c12 (stereo unspecified) + CN(C)c1ccc(Nc2c3ccc(NC(=O)CCN4CCCC4)cc3nc3cc(NC(=O)CCN4CCCC4)ccc23)cc1 | 23
CC(C)n1c(=O)n(C)c2cnc3cc(F)c(-c4ccc(OCCCN5CCCCC5)nc4)cc3c21 + CN(C)c1ccc(Nc2c3ccc(NC(=O)CCN4CCCC4)cc3nc3cc(NC(=O)CCN4CCCC4)ccc23)cc1 | 99.5
Nc1ccn(C2OC(CO)C(O)C2(F)F)c(=O)n1 (stereo unspecified) + CN(C)c1ccc(Nc2c3ccc(NC(=O)CCN4CCCC4)cc3nc3cc(NC(=O)CCN4CCCC4)ccc23)cc1 | 15.3
O=c1[nH]cc(F)c(=O)[nH]1 + CN(C)c1ccc(Nc2c3ccc(NC(=O)CCN4CCCC4)cc3nc3cc(NC(=O)CCN4CCCC4)ccc23)cc1 | 96.8
